Experimental findings from ChEMBL document CHEMBL4842380, “Enhanced Properties of a Benzimidazole Benzylpyrazole Lysine Demethylase Inhibitor: Mechanism-of-Action, Binding Site Analysis, and Activity in Cellular Models of Prostate Cancer” (J Med Chem, 2021) are described below.

In data set [1] the target is T1, Lysine-specific demethylase 4E (Homo sapiens, UniProt B2RXH2).
T1 sequence (B2RXH2 whole entry): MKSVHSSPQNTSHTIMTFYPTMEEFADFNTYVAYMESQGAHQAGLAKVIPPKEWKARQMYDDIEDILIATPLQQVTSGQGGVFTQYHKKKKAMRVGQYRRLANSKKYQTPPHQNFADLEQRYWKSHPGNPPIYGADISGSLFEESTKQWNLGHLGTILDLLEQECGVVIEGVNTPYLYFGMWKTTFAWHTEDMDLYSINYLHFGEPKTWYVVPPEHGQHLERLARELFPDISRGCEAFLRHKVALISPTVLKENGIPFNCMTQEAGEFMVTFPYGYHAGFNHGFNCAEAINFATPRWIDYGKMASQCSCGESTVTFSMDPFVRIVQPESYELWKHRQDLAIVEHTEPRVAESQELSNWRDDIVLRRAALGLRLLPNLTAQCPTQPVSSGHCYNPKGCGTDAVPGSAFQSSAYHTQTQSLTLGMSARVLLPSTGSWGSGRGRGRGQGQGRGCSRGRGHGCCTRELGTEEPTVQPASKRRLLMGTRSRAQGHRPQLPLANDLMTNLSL
Nature of the data set: Inhibition of N-terminal His6-tagged KDM4E (1 to 337 residues) (unknown origin) expressed in Escherichia coli BL21 (DE3)-R3 preincubated for 10 mins followed by substrate addition by fluorescence based FDH-coupled assay.

The target in data set [2] is T2, Lysine-specific demethylase 4E (Homo sapiens) (UniProt B2RXH2).
T2 sequence (whole entry): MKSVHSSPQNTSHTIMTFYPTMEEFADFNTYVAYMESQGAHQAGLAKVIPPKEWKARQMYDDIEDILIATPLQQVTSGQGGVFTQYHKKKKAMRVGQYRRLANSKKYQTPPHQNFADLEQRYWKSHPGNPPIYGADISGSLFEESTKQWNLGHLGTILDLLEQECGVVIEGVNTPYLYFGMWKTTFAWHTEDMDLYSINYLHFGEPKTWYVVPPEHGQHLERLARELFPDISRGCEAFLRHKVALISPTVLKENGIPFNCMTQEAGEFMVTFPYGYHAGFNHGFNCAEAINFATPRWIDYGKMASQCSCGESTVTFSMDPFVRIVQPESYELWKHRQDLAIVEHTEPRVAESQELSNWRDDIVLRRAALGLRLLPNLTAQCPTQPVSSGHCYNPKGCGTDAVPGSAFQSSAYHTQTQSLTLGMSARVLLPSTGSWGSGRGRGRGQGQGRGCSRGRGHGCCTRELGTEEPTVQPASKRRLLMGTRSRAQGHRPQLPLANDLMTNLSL
Nature of the data set: Inhibition of N-terminal His6-tagged KDM4E (1 to 337 residues) (unknown origin) expressed in Escherichia coli BL21 (DE3)-R3 at highest concentration preincubated for 10 mins followed by substrate addition by fluorescence based FDH-coupled assay.

Data set [3] relates to LNCaP. In words: Cytotoxicity against human LnCaP cells assessed as growth inhibition after 48 hrs by alamar blue assay. The class given is functional.
The nature of data set [4]: Cytotoxicity against human LnCaP cells assessed as remaining cell viability after 48 hrs by alamar blue assay. In kind it is functional, Prostate cell.
The test system of data set [5] is LNCaP. Nature of the data set: Inhibition of KDM4 in human LNCaP cells assessed as decrease in luciferase activity at 50 uM incubated for 48 hrs by luciferase based reporter gene assay. In kind it is cell-based.
In data set [6] the test system is LNCaP. Nature of the data set: Inhibition of KDM4 in human LNCaP cells assessed as decrease in PSA gene expression at 100 uM incubated for 48 hrs by qPCR analysis. The class given is cell-based.
In data set [7] the test system is LNCaP. Nature of the data set: Inhibition of KDM4 in human LNCaP cells assessed as increase in H3K9me3 level at 25 uM incubated for 48 hrs by Nu-ELISA. In kind it is cell-based.
For another data set, the system named is DU-145. Nature of the data set: Inhibition of KDM4 in human DU-145 cells assessed as increase in H3K9me3 level at 25 uM incubated for 48 hrs by Nu-ELISA. The class given is cell-based.
Compound in data set [8]: O=C(O)c1ccnc(C(=O)O)c1
Nature of the data set: Inhibition of N-terminal His6-tagged KDM4E (1 to 337 residues) (unknown origin) expressed in Escherichia coli BL21 (DE3)-R3 assessed as Km at 1 uM in presence of alpha-KG by Michaelis-Menten analysis (reference value: 22 uM). Particulars: Homo sapiens.

Compound in data set [9]: Cc1nn(-c2nc3ccccc3[nH]2)c(O)c1-c1ccccc1
Nature of the data set: Inhibition of N-terminal His6-tagged KDM4E (1 to 337 residues) (unknown origin) expressed in Escherichia coli BL21 (DE3)-R3 assessed as Km at 1 uM in presence of alpha-KG by Michaelis-Menten analysis (reference value: 12 uM). Particulars: Homo sapiens.

Compound in data set [10]: Cc1nn(-c2nc3ccccc3[nH]2)c(O)c1-c1ccccc1
Nature of the data set: Inhibition of N-terminal His6-tagged KDM4E (1 to 337 residues) (unknown origin) expressed in Escherichia coli BL21 (DE3)-R3 assessed as Km at 5 uM in presence of alpha-KG by Michaelis-Menten analysis (reference value: 12 uM). Particulars: Homo sapiens.

Compound in data set [11]: Cc1nn(-c2nc3ccccc3[nH]2)c(O)c1-c1ccccc1
Nature of the data set: Inhibition of N-terminal His6-tagged KDM4E (1 to 337 residues) (unknown origin) expressed in Escherichia coli BL21 (DE3)-R3 assessed as Km at 10 uM in presence of alpha-KG by Michaelis-Menten analysis (reference value: 12 uM). Particulars: Homo sapiens.

Compound in data set [12]: O=C(O)c1ccnc(C(=O)O)c1
Nature of the data set: Inhibition of N-terminal His6-tagged KDM4E (1 to 337 residues) (unknown origin) expressed in Escherichia coli BL21 (DE3)-R3 assessed as Vmax at 1 uM in presence of alpha-KG by Michaelis-Menten analysis (reference value: 42 /s). Particulars: Homo sapiens.

Compound in data set [13]: Cc1nn(-c2nc3ccccc3[nH]2)c(O)c1-c1ccccc1
In words: Inhibition of N-terminal His6-tagged KDM4E (1 to 337 residues) (unknown origin) expressed in Escherichia coli BL21 (DE3)-R3 assessed as Vmax at 1 uM in presence of alpha-KG by Michaelis-Menten analysis (reference value: 35 /s). The note with it: Homo sapiens.

Compound in data set [14]: Cc1nn(-c2nc3ccccc3[nH]2)c(O)c1-c1ccccc1
Nature of the data set: Inhibition of N-terminal His6-tagged KDM4E (1 to 337 residues) (unknown origin) expressed in Escherichia coli BL21 (DE3)-R3 assessed as Vmax at 5 uM in presence of alpha-KG by Michaelis-Menten analysis (reference value: 35 /s). The note with it: Homo sapiens.

Compound in data set [15]: Cc1nn(-c2nc3ccccc3[nH]2)c(O)c1-c1ccccc1
Nature of the data set: Inhibition of N-terminal His6-tagged KDM4E (1 to 337 residues) (unknown origin) expressed in Escherichia coli BL21 (DE3)-R3 assessed as Vmax at 10 uM in presence of alpha-KG by Michaelis-Menten analysis (reference value: 35 /s). Particulars: Homo sapiens.

Compound in data set [16]: Cc1nn(-c2nc3ccccc3[nH]2)c(O)c1-c1ccccc1
Nature of the data set: Inhibition of N-terminal His6-tagged KDM4E (1 to 337 residues) (unknown origin) expressed in Escherichia coli BL21 (DE3)-R3 assessed as Km at 1 uM in presence of H3K9me3 by Michaelis-Menten analysis (reference value: 11 uM). The note with it: Homo sapiens.

Compound in data set [17]: Cc1nn(-c2nc3ccccc3[nH]2)c(O)c1-c1ccccc1
In words: Inhibition of N-terminal His6-tagged KDM4E (1 to 337 residues) (unknown origin) expressed in Escherichia coli BL21 (DE3)-R3 assessed as Km at 5 uM in presence of H3K9me3 by Michaelis-Menten analysis (reference value: 11 uM). Particulars: Homo sapiens.

Compound in data set [18]: Cc1nn(-c2nc3ccccc3[nH]2)c(O)c1-c1ccccc1
Nature of the data set: Inhibition of N-terminal His6-tagged KDM4E (1 to 337 residues) (unknown origin) expressed in Escherichia coli BL21 (DE3)-R3 assessed as Km at 10 uM in presence of H3K9me3 by Michaelis-Menten analysis (reference value: 11 uM). The note with it: Homo sapiens.

Compound in data set [19]: Cc1nn(-c2nc3ccccc3[nH]2)c(O)c1-c1ccccc1
Nature of the data set: Inhibition of N-terminal His6-tagged KDM4E (1 to 337 residues) (unknown origin) expressed in Escherichia coli BL21 (DE3)-R3 assessed as Vmax at 1 uM in presence of H3K9me3 by Michaelis-Menten analysis (reference value: 21 /s). The note with it: Homo sapiens.

Compound in data set [20]: Cc1nn(-c2nc3ccccc3[nH]2)c(O)c1-c1ccccc1
In words: Inhibition of N-terminal His6-tagged KDM4E (1 to 337 residues) (unknown origin) expressed in Escherichia coli BL21 (DE3)-R3 assessed as Vmax at 5 uM in presence of H3K9me3 by Michaelis-Menten analysis (reference value: 21 /s). The note with it: Homo sapiens.

Compound in data set [21]: Cc1nn(-c2nc3ccccc3[nH]2)c(O)c1-c1ccccc1
Nature of the data set: Inhibition of N-terminal His6-tagged KDM4E (1 to 337 residues) (unknown origin) expressed in Escherichia coli BL21 (DE3)-R3 assessed as Vmax at 10 uM in presence of H3K9me3 by Michaelis-Menten analysis (reference value: 21 /s). The note with it: Homo sapiens.

Active and inactive are the calls of the source. The rule behind the calls is not given here.

Turning to `CCCCc1nn(-c2nc3ccccc3[nH]2)c(O)c1-c1ccccc1`, the midpoint of inhibition in data set [1], the IC50, lay at 6 µM.

For the molecule `C#CCc1c(C)nn(-c2nc3ccccc3[nH]2)c1O`, inhibition in [1] was half-maximal at 5 µM (IC50).

In the case of `Brc1cnn(-c2nc3ccccc3[nH]2)c1`, in data set [2], the inhibition entry was “inactive”.

Regarding `Cc1nn(-c2nc3ccccc3[nH]2)c(O)c1CCCN(C)C`, the IC50 in [1] was 70 µM.

Molecule `C=CCc1c(C)nn(-c2ccccn2)c1O` showed an IC50 in [1] of 191 µM.

Take `CN(C)CCCNC(=O)c1ccc(-c2cc(O)c3ncccc3c2)cc1`: the GI50 in the data set with LNCaP [3] turned out to be 53 µM. In data set [4], the Activity is recorded as 1%. In addition, the inhibition result in the data set on LNCaP [5], in the data set on LNCaP [7] and in the data set with DU-145 was “Active” throughout. Moreover, the inhibition result in the data set with LNCaP [6] is “inactive”.

As for `Cc1nn(-c2nc3ccccc3s2)c(O)c1-c1ccccc1`, the IC50 in data set [1] was 35 µM. This counts as double-digit micromolar.

`COC(=O)CCc1nn(-c2nc3ccccc3[nH]2)c(O)c1C` displayed an IC50 in [1] of 106 µM.

On to `CNC(=O)CCc1c(C)nn(-c2nc3ccccc3[nH]2)c1O`, for which the IC50 in [1] was 41 µM. This IC50 lies about 2.6-fold lower than the previous one.

For `O=C(O)Cc1cc(O)n(-c2nc3ccccc3[nH]2)n1`, the IC50 in data set [1] worked out at 347 µM.

Regarding `Cc1cc(C)n(-c2nc3ccccc3[nH]2)n1`, in data set [2], the inhibition entry was “inactive”.

Molecule `Cc1nn(-c2nc3ccccc3[nH]2)c(O)c1CCC(=O)N(C)C` came in with an IC50 in data set [1] of 16 µM. This lies in the double-digit micromolar range.

Turning to `C=CCc1c(C)nn(-c2nc3ccccc3[nH]2)c1O`, the IC50 in [1] was 24 µM.

Consider `Cc1nn(-c2nc3ccccc3n2C)c(O)c1-c1ccccc1`, for which, in data set [1], inhibition was half-maximal at 34 µM (IC50).

B1: Lysine-specific demethylase 4E (Homo sapiens), B2RXH2 (protein)
chain: MKSVHSSPQNTSHTIMTFYPTMEEFADFNTYVAYMESQGAHQAGLAKVIPPKEWKARQMYDDIEDILIATPLQQVTSGQGGVFTQYHKKKKAMRVGQYRRLANSKKYQTPPHQNFADLEQRYWKSHPGNPPIYGADISGSLFEESTKQWNLGHLGTILDLLEQECGVVIEGVNTPYLYFGMWKTTFAWHTEDMDLYSINYLHFGEPKTWYVVPPEHGQHLERLARELFPDISRGCEAFLRHKVALISPTVLKENGIPFNCMTQEAGEFMVTFPYGYHAGFNHGFNCAEAINFATPRWIDYGKMASQCSCGESTVTFSMDPFVRIVQPESYELWKHRQDLAIVEHTEPRVAESQELSNWRDDIVLRRAALGLRLLPNLTAQCPTQPVSSGHCYNPKGCGTDAVPGSAFQSSAYHTQTQSLTLGMSARVLLPSTGSWGSGRGRGRGQGQGRGCSRGRGHGCCTRELGTEEPTVQPASKRRLLMGTRSRAQGHRPQLPLANDLMTNLSL
With B1, the Km in data set [8] stood at 69 µM; in data set [9], 13 µM; in data set [10], 8 µM; in data set [11] it was 2 µM; in [16], 14 µM; in [17] it was 14 µM. The Km in data set [18] is 19 µM. For the same molecule, the Vmax is 37 s⁻¹ in [12]; 31 s⁻¹ in data set [13]; 24 s⁻¹ in [14]; 12 s⁻¹ in [15]; 21 s⁻¹ in data set [19]; 14 s⁻¹ in data set [20]. Besides, the Vmax in data set [21] was 5 s⁻¹.
